According to patent US5817648A, “Vitamin D3 analogues having an unsaturated side chain” (Duphar International Research B.V., priority 1995, dated 1998):

Legend:
[1] = tested on: human leukemic cell line HL-60; test: Cell differentiation in HL-60 assay (NBT reduction); format: cell-based; conditions: compared with calcitriol
Description: The vitamin D compounds to be investigated are dissolved in ethanol in concentrations ranging from 10^-12 to 10^-6 M and tested for their capacity to induce cell differentiation in a HL-60 assay. In this assay, biochemical examination of the human leukemic cell line HL-60 is performed, in order to establish whether cell differentiation has taken place.
Differentiation is expressed as the maturation parameter nitroblue tetrazolium (NBT) reduction. After culturing with the known calcitriol or with the vitamin D compounds to be investigated, the percentage of cells containing black formazan deposits is determined. An increase in the percentage of NBT reducing cells indicates an increase in cell differentiation.
Proliferation and vitality of the cell cultures are established by counting the number of cells and by the trypan blue exclusion method.

[2] = tested on: Vitamin D binding protein (DBP); test: Affinity to vitamin D binding protein (competition with 3H-1α,25-DHCC); conditions: DBP purified from total human serum
Description: Vitamin D binding protein (DBP) is the specific carrier for vitamin D and its metabolites in blood. The biological activity of vitamin D compounds depends on their binding to DBP, because strong binding to DBP will reduce the intracellular access to the VDR. Binding to the DBP may also influence the half-life of the vitamin D derivatives in circulation. Weak binders are rapidly metabolized, which is a favourable aspect in topical application.
In the assay, DBP is incubated with ^3 H-1α,25-DHCC and 1α,25-DHCC or with the vitamin D compounds to be investigated. To this purpose, the vitamin compounds are dissolved in ethanol in concentrations ranging from 10^-11 to […]. The percentage bound/unbound ^3 H-1α,25-DHCC is then calculated. DBP is purified from total human serum. Both 24,24-dihomo-.increment.(24-24a)-calcitriol and 24,24-dihomo-.increment.(24a-24b)-calcitriol are much weaker binders to the DBP than calcitriol (2% and 3.5% respectively).

[3] = biological target: T1, calf thymus intracellular vitamin D receptor (VDR) (Bos taurus, UniProt Q28037); test: Affinity to intracellular vitamin D receptor (displacement of 3H-1α,25-DHCC); format: binding
T1 construct: calf thymus intracellular vitamin D receptor (VDR); from tissue; host or cells: calf thymus
T1 sequence (Q28037 1-426): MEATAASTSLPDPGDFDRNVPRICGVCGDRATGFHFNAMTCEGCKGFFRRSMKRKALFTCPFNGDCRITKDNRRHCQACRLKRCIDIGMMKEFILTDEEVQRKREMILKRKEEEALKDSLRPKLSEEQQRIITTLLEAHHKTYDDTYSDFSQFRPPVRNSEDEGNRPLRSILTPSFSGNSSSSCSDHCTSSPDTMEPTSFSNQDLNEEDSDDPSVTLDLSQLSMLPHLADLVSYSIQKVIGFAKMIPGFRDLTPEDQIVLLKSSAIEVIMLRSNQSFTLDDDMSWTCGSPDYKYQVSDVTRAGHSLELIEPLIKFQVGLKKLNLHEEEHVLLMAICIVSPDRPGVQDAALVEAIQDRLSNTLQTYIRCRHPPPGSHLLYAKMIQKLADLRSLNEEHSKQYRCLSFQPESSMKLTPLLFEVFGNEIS
Excerpt: In this assay, ^3 H-1α,25-dihydroxycholecalciferol (^3 H-1α,25-DHCC), which is specifically bound to the VDR, is replaced by the tested compounds. […] 9 times that of calcitriol. A high affinity towards the VDR is indicative for biologically active compounds.

SMILES | activity in inducing differentiation and maturation of the HL-60 cells (in words) [1] | binding to the DBP relative to calcitriol [2] [%] | activity in inducing differentiation of HL-60 cells, times less active than calcitriol [1] [times less active] | affinity towards the VDR relative to calcitriol ([3]; relative to calcitriol) [%] | affinity towards the VDR, times that of calcitriol [3]
C=C1/C(=C\C=C2/CCC[C@]3(C)[C@@H]([C@H](C)CCCC(C)(C)O)CC[C@@H]23)C[C@@H](O)C[C@@H]1O [Calcitriol, calcitriol] | equally active | – | – | – | –
C=C1/C(=C\C=C2/CCC[C@]3(C)[C@@H]([C@H](C)CC/C=C/CC(C)(C)O)CC[C@@H]23)C[C@@H](O)C[C@@H]1O [24,24-dihomo-.increment.(24-24a)calcitriol] | – | 2 | 4 | ≤ 1 | –
C=C1/C(=C\C=C2/CCC[C@]3(C)[C@@H]([C@H](C)CCC/C=C/C(C)(C)O)CC[C@@H]23)C[C@@H](O)C[C@@H]1O [Compound 16, (5Z,7E)-(1S,3R)-9,10-Seco-24a,24b-dihomo-(24aE)-5,7,10(19),24a-cholestatetraen-1,3,25-triol] | equally active | 3.5 | – | – | 9 times that of calcitriol
